The structures appear in SMILES notation.

This assay deals with CAIA-induced C57BL/6 mice. The assay is described as follows: Collagen antibody-induced arthritis (CAIA) model. It is filed as in vivo, mouse. The conditions noted are these: 5 mg/kg, p.o. daily. As for the experimental part:
14. Induction of rheumatoid arthritis in C57BL/6 mice: To induce rheumatoid arthritis, anti-collagen-II mAbs (CII-Ab, Arthrogen-CIA Arthritogenic Monoclonal Antibody, #53010: Chondrex, Inc., WA, USA) were intraperitoneally (i.p.) injected into 7-week-old male mice on the first day, and 50 μg of LPS was injected on the third day. To evaluate the severity of arthritis, a scoring system was applied according to the criteria.
0. No erythema and swelling are observed.
1. Slight erythema is observed in tarsals and ankle joints.
2. Slight erythema and swelling are observed from an ankle joint to the midfoot.
3. Erythema and swelling extending from ankle joints to the metatarsals are observed.
4. Erythema and severe swelling were observed throughout the ankles, feet, and fingers.
The sum of final scores was recorded daily until the sum reached 16. On the 18th day, each of the mice was anesthetized, and then located on a radiographic view box. Thereafter, a location of each of the mice was adjusted so that the mouse was disposed at a distance of 90 cm from an X-ray source. The radioanalysis on hind legs with arthritis was performed by irradiating the hind legs at […] for 0.01 seconds using an X-ray machine (BLD-150RK, Hradec Kralove, Czech Republic).
15. Immunohistochemical assay: An immunohistochemical assay was carried out using an avidin-biotin-peroxidase method known in the art. Each of joint tissue samples collected from the mice was fixed with formalin, and embedded in paraffin. These samples were continuously microtomed into sections with a thickness of 4 μm. Each of the sections was stained with haematoxylin/eosin (H&E), anti-COX-2 and anti-iNOS antibodies (Caymen Chemical, Ann Arbor, Mich.).
Referring to FIG. 10(A), MMPP (5 mg/kg, p.o.) (dissolved in 100 μL of PBS including 0.5 μL of DMSO), a vehicle (a negative control), or indomethacin (5 mg/kg, p.o./dissolved in […] of PBS after the dissolution) was administered daily to 7-week-old male C57BL/6 mice for 18 days.

`COc1ccc2c(c1)c(CC(=O)O)c(C)n2C(=O)c1ccc(Cl)cc1` [indomethacin, reference compound]: the “clinical score lower than that of the CAIA group” value is 64.8%.

Source of the values: patent publication US10265276B2, “Pharmaceutical composition for preventing or treating arthritis or inflammatory disease containing 2-methoxy-4-(3-(4-methoxyphenyl)propyl-1-en-1-yl)phenol as active ingredient” (CHUNGBUK NATIONAL UNIVERSITY INDUSTRY-ACADEMIC COOPERATION …, priority 2015, dated 2019).
